In patent US12390459B2, “Methods for solid tumor treatment” (CRITITECH, INC., priority 2016, dated 2025):
Like-named read-outs stand apart in the source and are kept apart here.

Key:
[1] = test system: MX-1 human breast cancer xenografts; details: for animal deaths / animals euthanized: 30 mg/kg IV qwk×3, 10 mice; for inhibition of growth of the xenografts: 30 mg/kg IV qwk×3 vs vehicle
Source text: Tumor model: A total of 88 female NCr-nu/nu mice were implanted with MX-1 breast tumor fragments from an in vivo passage subcutaneously (SC) on the right flank. The day of tumor cell implantation was designated as Day 0.
The NanoPac™ and NanoDoce™ are suspensions. Prior to filling each syringe and between the injections of each animal, the test article was gently swirled/inverted. Animals were observed once daily for mortality and moribundity. Adverse signs were documented by exception only. Body weights were collected twice weekly beginning on SD. Tumor measurements were taken twice weekly beginning on SD, using a digital caliper. Length and width were measured for each tumor. Tumor volume was determined using the formula for an ellipsoid sphere: Length×Width 2/2=Volume (mm^3). This formula was also used to calculate tumor weight, assuming unity density (1 mm^3=1 mg). Limit of tumor detection is 32 mg (4×4 mm). The experiment lasted for 63 days from the day of tumor implant. Animals whose weight decreased more than 30% from the weight on the first day of treatment or whose tumor reached 4,000 mg in weight, ulcerated, or sloughed off was euthanized prior to study termination.

[2] = test system: MDA-MB-231 human breast cancer xenografts; details: for complete tumor regressions (animals): 30 mg/kg IV qwk×3; for animal deaths: 30 mg/kg IV qwk×3, 10 mice; for mean tumor weight: 30 mg/kg IV qwk×3, Day 29; for inhibition of growth of the xenografts: 30 mg/kg IV qwk×3, Day 29 vs vehicle; for % difference at nadir of response: 30 mg/kg IV qwk×3, Day 33; for tumor-free animals at the end of the study: 30 mg/kg IV qwk×3, Day 61; for tumor-free animals: IV treated group, Day 49
Source text: Study Design: A total of 88 female NCr-nu/nu mice were implanted with MDA-MB-231 breast tumor fragments from an in vivo passage subcutaneously (SC) on the right flank. The day of tumor cell implantation (Aug. 4, 2016) was designated as Day 0.
The NanoPac™ and NanoDoce™ are suspensions. Prior to filling each syringe and between the injections of each animal, the test article was gently swirled/inverted. Intratumoral administration of the test material entailed the use of six needle tracks per tumor (27 G ½ inch needle). One sixth of the dose volume was injected as a slow bolus in each track, with ˜15 seconds pause before removing the needle slowly, and moving to the next injection site spaced over the surface of the tumor. The animals were observed once daily for mortality and moribundity. The mice were weighed and the tumor measurements were taken twice weekly starting on the first day of treatment. Length and width were measured for each tumor. Tumor volume was determined using the formula for an ellipsoid sphere: Length×Width^2/2=Volume(mm^3)
This formula was also used to calculate tumor weight, assuming unity density (1 mm^3=1 mg). Limit of tumor detection was 32 mg (4×4 mm). The experiment lasted for 61 days from the day of tumor implant. Animals whose weight decreased more than 30% from the weight on the first day of treatment or whose tumor reached 4,000 mg in weight, ulcerated, or sloughed off was euthanized prior to study termination.

[3] = Particle size analysis (light obscuration and laser diffraction); type: physicochemical
Description: Particle size was analyzed by both light obscuration and laser diffraction methods. An Particle Sizing Systems AccuSizer 780 SIS system was used for the light obscuration method and Shimadzu SALD-7101 was used for the laser diffraction method.
The vials were vortexed for approximately 10 seconds and then sonicated in a sonic bath approximately 1 minute.
The vial was vortexed for approximately 10 seconds and then sonicated in a sonic bath for approximately 2 minutes. This suspension was used for laser diffraction analysis. Unused suspension was poured into a 125 mL particle-free plastic bottle, which was then filled to approximately 100 mL with filtered dispersant. The suspension was vortex for approximately 10 seconds and then sonicated in the sonic bath for approximately 2 minutes. This diluted suspension was used for light obscuration analysis.
A background test was first performed prior to analyzing particles on the AccuSizer 780 SIS. A new particle-free plastic bottle was filled with blank suspension solution by pumping from a reservoir, using a peristaltic pump, through a 0.22 μm Millipore filter and into the bottle. A background analysis was run to ensure the particle/mL count was below 100 particles/mL. […] Once the analysis was completed, the background data was removed and any measurement with less than four counts was removed.
To analyze particles on SALD-7101 using a batch cell, the analysis was started by choosing Manual Measurement. The refractive index was set as 1.5 to 1.7. The batch cell was filled with filtered dispersant just past the etched line. The blank measurement was ran. […] The measurements were executed, and the resulting graph with the highest level of confidence was selected; background was automatically accounted for.

[4] = BET surface area analysis; type: physicochemical
Description: As used herein, the “specific surface area” is the total surface area of the taxane particle per unit of taxane mass as measured by the Brunauer-Emmett-Teller (“BET”) isotherm (i.e.: the BET SSA). As will be understood by those of skill in the art, the “taxane particles” can include both agglomerated taxane particles and non-agglomerated taxane particles; since the SSA is determined on a per gram basis it takes into account both agglomerated and non-agglomerated taxane particles in the composition. The BET specific surface area test procedure is a compendial method included in both the United States Pharmaceopeia and the European Pharmaceopeia.
A known mass between 200 and 300 mg of the analyte was added to a 30 mL sample tube. […] The automated test was then carried out using the BETWIN® software package and the surface area of each sample was subsequently calculated.

[5] = Paclitaxel dissolution study, USP Apparatus II (Paddle); type: physicochemical; details: methanol/water 50/50 (v/v), 37° C., pH 7, 75 rpm
Description: Beads were transferred to a stainless steel mesh container and placed in the dissolution bath containing methanol/water 50/50 (v/v) media at 37° C., pH 7, and a USP Apparatus II (Paddle), operating at 75 rpm. At 10, 20, 30, 60, and 90 minutes, a 5 mL aliquot was removed, filtered through a 0.22 μm filter and analyzed on a U(V/V)is spectrophotometer at 227 nm. Absorbance values of the samples were compared to those of standard solutions prepared in dissolution media to determine the amount of material dissolved.

[6] = Paclitaxel concentration in JIMT-1 tumor tissue (LC/MS/MS); type: in vivo, CB.17 SCID mice; details: Group 5: 30 mg/kg, IV, qwk × 3; day 50, 35 days after last dose; individual animals
Description: The timing of the analysis for each group relative to the last day of drug administration is as follows: • 21 days after last dose for groups 1, 3 and 4; • 49 days for group 2; and • 35 days for group 5.
Tissue processing was carried out as follows: • 1. Control tumor tissue and tumor tissue samples were weighed and three volumes of water were added to each to yield samples with a dilution factor of 4. • 2. Tumor tissues were homogenized with a homogenizer FastPrep®-24 using a speed of 4.0 m/sec for 100 sec. • 3. 50 μL of control tumor tissue homogenate was added to separate wells of a 96 well plate for STDs, QC samples and blanks. • 4. To the control tumor tissue homogenates, 50 μL of the appropriate solution was added for STDs and QC samples (50 μL of diluent was added for blanks) • 5. For tumor tissue homogenate study samples, 50 μL of each sample was added to separate well of the 96-well plate and 50 μL aliquot of diluent was added to each tissue sample. • 6. To all samples, 200 μL of internal standard (200 ng/mL Warfarin) solution in ACN was added. • 7. The plate was vortexed vigorously for 10 minutes and then centrifuged for 10 minutes at 4000 rpm (Sorvall Legend X1R centrifuge, Thermo Scientific) at 15° C. • 8. After centrifugation, 100 μL aliquots of supernatant were transferred to a new 96-well plate containing 100 μL of water in each well. • 9. […]

[7] = test system: PC-3 human prostate carcinoma; experiment: PC-3 prostate carcinoma xenograft, Study P-PPr-01-2015; type: in vivo, nude mouse; details: IV 30 mg/kg qwk×3
Description: Tumors were measured twice per week. Partial treatment outcome was based on percent tumor growth inhibition (% TGI), defined as the percent difference between the Day 32 median tumor volumes of treated and vehicle-control mice.

[8] = test system: JIMT-1 human breast cancer xenografts; experiment: JIMT-1 human breast cancer xenograft study; type: in vivo, CB.17 SCID mice; details: 30 mg/kg iv qwk×3
Description: Test articles were as follows:
Adjust volume accordingly for body weight. […] Animals were monitored individually. […] When the endpoint is reached, the animals were euthanized.
Tumor growth inhibition was evaluated on D29 (the last day of dosing for animals receiving 5 admins, G1, 3, 4) at 1000 mm^3 and the study ended on D50 with a revised tumor volume endpoint of 600 mm^3 for overall survival analysis.

[9] = Docetaxel dissolution study, USP Apparatus II (Paddle); type: physicochemical; details: for Docetaxel Dissolution: methanol/water 15/85, 37° C., pH 7
Description: At 5, 15, 30, 60, 120 and 225 minutes, a 5 mL aliquot was removed, filtered through a 0.22 μm filter, and analyzed on a UV/VIS spectrophotometer at 232 nm. Absorbance values of the samples were compared to those of standard solutions prepared in dissolution media to determine the amount of material dissolved.

CC(=O)O[C@@]12CO[C@@H]1C[C@H](O)[C@@]1(C)C(=O)[C@H](O)C3=C(C)[C@@H](OC(=O)[C@H](O)[C@@H](NC(=O)OC(C)(C)C)c4ccccc4)C[C@@](O)([C@@H](OC(=O)c4ccccc4)[C@H]21)C3(C)C [docetaxel]
animal deaths / animals euthanized [1]: two animals euthanized for body weight loss >30%
mean tumor weight ([1]; 30 mg/kg IV qwk×3, Day 28): 0.9 mg
animals with completely regressed tumors ([1]; 30 mg/kg IV qwk×3, Day 31): nine
surviving animals tumor-free at the end of the study ([1]; 30 mg/kg IV qwk×3, Day 63): eight
inhibition of growth of the xenografts [1]: significantly inhibited the growth
complete tumor regressions (animals) [2]: 10
animal deaths [2]: no animal deaths
mean tumor weight [2]: 16 mg
inhibition of growth of the xenografts [2]: significantly inhibited the growth
% difference at nadir of response [2]: −99.8%
mean tumor volume ([2]; 30 mg/kg IV qwk×3, Day 40): 0
tumor-free animals at the end of the study [2]: 10
tumor-free animals [2]: ten

CC(=O)O[C@H]1C(=O)[C@@]2(C)[C@H]([C@H](OC(=O)c3ccccc3)[C@]3(O)C[C@H](OC(=O)[C@H](O)[C@@H](NC(=O)c4ccccc4)c4ccccc4)C(C)=C1C3(C)C)[C@]1(OC(C)=O)CO[C@@H]1C[C@@H]2O [Paclitaxel Raw Material, paclitaxel]
Number Mean [3]: 1.16 um
Surface Area ([4]; BET): 10.4 m^2/g
BET surface area ([4]; Example 1): 7.25 m^2/g
Dissolution (30 min) [5]: 18%

CC(=O)O[C@H]1C(=O)[C@@]2(C)[C@H]([C@H](OC(=O)c3ccccc3)[C@]3(O)C[C@H](OC(=O)[C@H](O)[C@@H](NC(=O)c4ccccc4)c4ccccc4)C(C)=C1C3(C)C)[C@]1(OC(C)=O)CO[C@@H]1C[C@@H]2O [paclitaxel]
Paclitaxel Concentration in tumor tissue [6]: BQL < 1 ng/g
TGI [7]: significant TGI
survival extension [7]: significantly improved survival extension
animal deaths / animals euthanized [1]: without animal deaths
mean tumor weight ([1]; 30 mg/kg IV qwk×3, Day 24): 309 mg
% difference at nadir of response ([1]; 30 mg/kg IV qwk×3, Day 31): −86.0%
inhibition of growth of the xenografts [1]: significantly inhibited the growth
complete tumor regressions (animals) [2]: six
animal deaths [2]: without animal deaths
mean tumor weight [2]: 118 mg
inhibition of growth of the xenografts [2]: significantly inhibited the growth
% difference at nadir of response [2]: −97.4%
tumor-free animals at the end of the study [2]: three
tumor-free animals [2]: three
TGI [8]: significant TGI
survival extension [8]: significantly improved survival extension

CC(=O)O[C@@]12CO[C@@H]1C[C@H](O)[C@@]1(C)C(=O)[C@H](O)C3=C(C)[C@@H](OC(=O)[C@H](O)[C@@H](NC(=O)OC(C)(C)C)c4ccccc4)C[C@@](O)([C@@H](OC(=O)c4ccccc4)[C@H]21)C3(C)C [Docetaxel Raw Material, docetaxel]
Number Mean [3]: 1.58 um
Volume Mean [3]: 5.05 um
Docetaxel Dissolution ([9]; 0 minutes): 0.0%
Docetaxel Dissolution ([9]; 5 minutes): 3.2%
Docetaxel Dissolution ([9]; 15 minutes): 6.9%
Docetaxel Dissolution ([9]; 30 minutes): 11.2%
Docetaxel Dissolution ([9]; 60 minutes): 16.4%
Docetaxel Dissolution ([9]; 120 minutes): 22.4%
Docetaxel Dissolution ([9]; 225 minutes): 26.8%
Dissolution (30 min) ([9]; methanol/water 15/85 (v/v), 37° C., pH 7, 75 rpm): 11%
